This is an account of results in patent US8394742B2, “Methods, compounds and compositions with genotype selective anticancer activity” (The Translation Genomics Research Institute, priority 2005, dated 2013).

One may read the IC50 as the concentration needed to halve the response being measured. Higher therefore signals weaker potency.

For one assay, the system named is BxPC-3-vector cells. Put plainly: MTS based cell proliferation assay, BxPC-3-vector cells. Further details: species or system human. The note with it: BxPC-3-vector (BxPc3Vc, pMSCVneo empty vector), 4 days. Here is the method:
(§1) The inhibition of cell proliferation by library compounds was evaluated using the CellTiter 96 Non-Radioactive Cell Proliferation Assay following the protocol recommended by the manufacturer (Promega, Madison Wis.). Briefly, 2000 cells were seeded in each well of 96-well plates in 90 μl growth medium. Cells were allowed to attach overnight followed by addition of 10 μl of serially diluted compounds into the plates. After incubation for 4 days at 37° C. in a humidified incubator, 20 μl of a 20:1 mixture of (3-(4,5-dimethylthiazol-2-yl)-5-(3-carboxymethoxyphenyl)-2-(4-sulfophenyl)-2H-tetrazolium, inner salt (MTS, 2 mg/ml) and an electron coupling reagent, phenazine methosulfate (PMS, 0.92 mg/ml), was added to each well and incubated for 3 hours at 37° C. Absorbance was then measured using the Wallace Victor microplate reader at 490 nm (PerkinElmer, Wellesley, Mass.). Data were expressed as the percentage of cell growth calculated from the absorbance corrected for background absorbance. The surviving fraction of cells was determined by dividing the mean absorbance values of the treated samples by the mean absorbance values of the DMSO control.
(§2) After generating the isogenic cell lines for the DPC4 gene, Applicants then carried out a screening process using the cell lines with the aim to identify compounds that selectively kill cells with deficient DPC4 function. […]

The next assay relates to HPDE6 (wild-type DPC4). Put plainly: MTS cell proliferation assay, HPDE6 cells. The note with it: Homo sapiens. The assay is classed as cell-based. Here is the method: At the initial screening, compounds are tested in the MTS assay (or other cell proliferation assays such as SRB and Alamar Blue) against the cell line in which the specific gene is either deleted or suppressed by siRNA at a single dose of 10 μM (Toxicity Screening).
Compounds that show more than 50% cell growth inhibition at this concentration are selected to test against both isogenic cell lines (loss-of-function vs. wild type) at three different concentrations (10, 2 and 0.4 μM, Synthetic lethal Screening). Compounds that show a selectivity index ≧5 are selected for next round of screening—Selectivity Screening.
In the Selectivity Screening, compounds are tested against cancer cell lines with a specific loss-of-function mutation and normal cells (HPDE6 and FORF-TERT). Depending on their approximate potency assessed in the Synthetic lethal Screening, compounds are tested in a range of concentrations (8 concentrations per agent) in Selectivity Screening. Compounds that have nM IC50 values in loss-of-function cells and selectivity index values >10 are selected for phenotypic consequence tests and in vivo evaluations in animal models.
The inhibition of cell proliferation by library compounds was evaluated using the CellTiter 96 Non-Radioactive Cell Proliferation Assay following the protocol recommended by the manufacturer (Promega, Madison Wis.). […]
For orientation: Tetrazolium dyes change colour on reduction, which living cells bring about.

The test system of the next assay is Panc-1 (DPC4 wildtype). In words: MTS cell proliferation assay, Panc-1 cells. The assay is classed as cell-based. The note with it: Homo sapiens. The procedure: as §1, §2
The subject of assay [1] is pancreatic cancer cell lines. In words: MTS cell proliferation assay, panel of pancreatic cancer cell lines. The class given is cell-based, human. The procedure: as §1
Applicants further examined the anti-proliferative activity of UA62001 in a panel of cell lines including normal cell lines which have wildtype DPC4 and pancreatic cancer lines with either wildtype DPC4 or inactivated DPC4 (Table 1). […]

Assay [2] deals with DPC4 isogenic cell lines (BxPC-3-vector and BxPC-3-DPC4). Put plainly: Pharmacological synthetic lethal screening in DPC4 isogenic cell lines. The class given is cell-based, human. The conditions noted are these: reexpression isogenic cell lines. The text has this:
To find molecules that selectively kill cells with specific deficiencies, Applicants use cell proliferation assays to screen molecules libraries in a high throughput manner. These molecule libraries can be small organic compounds, siRNA libraries, antisense libraries and antibody/protein libraries. To carry out the screening in an efficient and cost-effective way, Applicants have designed a procedure for the screening of small organic compound libraries which consists of three steps, namely Toxicity Screen, Synthetic Lethal Screen and Selectivity Screen (FIG. 12). […]
In the Selectivity Screening, compounds are tested against cancer cell lines with a specific loss-of-function mutation and normal cells (HPDE6 and FORF-TERT). Depending on their approximate potency assessed in the Synthetic lethal Screening, compounds are tested in a range of concentrations (8 concentrations per agent) in Selectivity Screening. […]
After generating the isogenic cell lines for the DPC4 gene, Applicants then carried out a screening process using the cell lines with the aim to identify compounds that selectively kill cells with deficient DPC4 function. […] In each round, the anti-proliferative activity of compounds was evaluated in different cell lines using the CellTiter 96 Non-Radioactive Cell Proliferation Assay (Promega). […]

The structures appear in SMILES notation.

Consider `O=C1c2ccccc2C(=O)c2c1ccc1c(=O)n(-c3ccccc3)[nH]c21` [UA62001, 2-phenyl-1H-Naphth [2,3-g]indazole-3,6,11(2H)-trione], for which the IC50 with BxPC-3-vector cells is 3.2 ± 0.45 µM; with BxPC-3-vector cells (Homo sapiens, 96 h), 3 µM; with HPDE6 (wild-type DPC4), over 100 µM; in the assay on Panc-1 (DPC4 wildtype), 26 µM. In assay [1], the “IC50 values in pancreatic cancer cell lines” value is given as “low μM”. The “selectivity against DPC4 deficiency” value in assay [2] is listed as “DPC4 genotype selectivity”.
